Test system: human prostate
Assay: Contractile responses of human prostate
Details: antagonist affinity estimate against (−)-noradrenaline contractions of human prostatic tissue strips; single antagonist concentration, incubated 2 hours
Method: Contractile Responses of Human Prostate
Prostatic tissue was cut into longitudinal strips (approximately 3×2×10 mm) and suspended in organ baths under a resting tension of 1 g in Krebs Ringer bicarbonate of the following composition (mM): NaCl (119), KCl (4.7), CaCl2 (2.5), KH2PO4 (1.2), MgSO4 (1.2), NaHCO3 (25), glucose (11), and gassed with 95% O2/5% CO2. The solution also contained 10 mM cocaine and 10 mM corticosterone. Tissues were exposed to a sensitising dose of (−)-noradrenaline ([…]) and washed over a 45 minute period. Isometric contractions were obtained in response to cumulative additions of (−)-noradrenaline to obtain control curves in all tissues. A further curve was then generated in the presence or absence of antagonist (incubated for 2 hours). Antagonist affinity estimates (pA2) were determined using a single concentration of competing antagonist, pA2=−log [A]/(DR-1) where the dose ratio (DR), relative to corresponding controls, was produced by a single concentration of antagonist [A], assuming competitive antagonism and Schild regression close to unity.

Structure (SMILES): COc1cc2nc(N3CCCN(C(=O)N4C[C@H](O)[C@@H](O)C4)CC3)nc(N)c2c(-c2ccccc2)c1OC.Cl [Example 17, 4-Amino-6,7-dimethoxy-2-{4-[1-(3S,4S-dihydroxypyrrolidine)carbonyl]-1,4-diazepan-1-yl}-5-phenylquinazoline hydrochloride]
- pA2 value: 8.5

From patent US6750214B2, “Quinoline and quinazoline compounds useful in therapy” (priority 1995, dated 2004)
